Broadly, the Km is the substrate concentration at which the rate is half of its maximum.

From US11535856B2, “Stilbenoid prenyltransferases from plants” (Arkansas State University—Jonesboro, priority 2016, dated 2022) come the findings set out here.

Experiment [1] has as its system peanut hairy root cultures. The experiment in a line: Inhibitor feeding experiment in elicited peanut hairy root cultures. Format: cell-based, Arachis hypogaea.
Another experiment has as its target AhR3′DT-1 (Arachis hypogaea, UniProt A0A2H4GDD0). In words: AhR3′DT-1 activity in microsomal fraction of N. benthamiana leaves. The conditions noted are these: for activity as prenyl donor: 300 μM donor, 100 μM resveratrol as prenyl acceptor; for AhR3′DT-1 activity relative to Mg^2+: 10 mM divalent cation or EDTA; for prenylation as prenyl acceptor: DMAPP as prenyl donor.

The next experiment addresses AhR4DT-1 (Arachis hypogaea, UniProt A0A2H4GDC8). The experiment in a line: AhR4DT-1 activity in microsomal fraction of N. benthamiana leaves. The conditions noted are these: for activity as prenyl donor: 300 μM donor, 100 μM resveratrol as prenyl acceptor; for AhR4DT-1 activity relative to Mg^2+: 10 mM divalent cation or EDTA; for prenylation as prenyl acceptor: DMAPP as prenyl donor.

Experiment [2] deals with resveratrol prenyltransferase AhR4DT. The experiment in a line: Prenyltransferase assay with microsomal fraction of elicited peanut hairy roots. Format: biochemical, Arachis hypogaea. The conditions noted are these: for prenylation as prenyl acceptor: 100 μM acceptor, 300 μM DMAPP; for resveratrol prenyltransferase activity relative to Mg^2+: 10 mM divalent cation.
For the next experiment, the system named is resveratrol prenylation. The experiment in a line: Screening for stilbenoid prenylation activity, crude extract of infiltrated N. benthamiana leaves. Format: biochemical, Arachis hypogaea. The conditions noted are these: resveratrol and DMAPP as substrates. As for the experimental part: The engineered A. tumefaciens was grown in 5 mL of YEP medium, containing 50 mg/L of kanamycin (Sigma-Aldrich) and 30 mg/L of streptomycin (Sigma-Aldrich) for antibiotic selection, at 28° C. on an orbital shaker at 200 rpm. After cultivation for 2 days, 5 mL of bacterial suspension was inoculated into 50 mL of fresh YEP medium containing the antibiotics and allowed to grow for one additional day under the same conditions. Bacteria were pelleted by centrifugation, resuspended in 500 mL of induction medium containing 10 mM MgCl2 with 1 mM acetosyringone and incubated for 4 h at 28° C. under 200 rpm orbital shaking until their OD600 reached to a range from 0.5 to 0.6. Before the infiltration, 0.005% of Tween-20, 0.005% of Triton 100 and 0.005% of Silwet L-77 were added to bacterial cultures to enhance the efficiency of transformation in N. benthamiana leaves. Agrobacterium-mediated vacuum infiltration was performed on 4-week-old N. benthamiana following the methodology described previously (Medrano et al., 2009).
After 48 hours of post-infiltration, the “middle tier” of N. benthamiana leaves were harvested for prenylation activity screening. Five grams of leaf tissue (fresh weight) were grounded and homogenized using a mortar with pestle in 10 mL of extraction buffer containing 100 mM Tris-HCl (pH 7.6) and 10 mM dithiothreitol (DTT). […] The total protein concentration was determined by coomassie protein assay (Thermo Scientific) using bovine serum albumin as standard.
The reaction of crude cell-free extract of N. benthamiana leaves infiltrated with A. tumefaciens harboring the empty pBIB-Kan vector was used as control.

[3] abbreviates: 100 clomazone with elicitors, 72 h.
[4] abbreviates: 10 μM mevastatin, 72-h treatment.

AhR3′DT-1, sequence (A0A2H4GDD0 entry or part of it): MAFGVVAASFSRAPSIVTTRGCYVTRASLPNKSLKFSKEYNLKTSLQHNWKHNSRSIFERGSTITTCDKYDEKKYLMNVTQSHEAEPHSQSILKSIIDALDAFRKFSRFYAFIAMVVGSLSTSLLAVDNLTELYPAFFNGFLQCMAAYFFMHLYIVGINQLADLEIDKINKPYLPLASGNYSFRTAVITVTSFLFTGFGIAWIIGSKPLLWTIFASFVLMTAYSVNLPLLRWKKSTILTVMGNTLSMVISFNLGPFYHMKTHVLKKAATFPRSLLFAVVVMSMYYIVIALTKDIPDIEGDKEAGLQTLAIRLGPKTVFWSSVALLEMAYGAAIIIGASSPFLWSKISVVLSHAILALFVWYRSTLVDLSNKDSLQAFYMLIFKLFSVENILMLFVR
AhR4DT-1, sequence (A0A2H4GDC8 entry or part of it): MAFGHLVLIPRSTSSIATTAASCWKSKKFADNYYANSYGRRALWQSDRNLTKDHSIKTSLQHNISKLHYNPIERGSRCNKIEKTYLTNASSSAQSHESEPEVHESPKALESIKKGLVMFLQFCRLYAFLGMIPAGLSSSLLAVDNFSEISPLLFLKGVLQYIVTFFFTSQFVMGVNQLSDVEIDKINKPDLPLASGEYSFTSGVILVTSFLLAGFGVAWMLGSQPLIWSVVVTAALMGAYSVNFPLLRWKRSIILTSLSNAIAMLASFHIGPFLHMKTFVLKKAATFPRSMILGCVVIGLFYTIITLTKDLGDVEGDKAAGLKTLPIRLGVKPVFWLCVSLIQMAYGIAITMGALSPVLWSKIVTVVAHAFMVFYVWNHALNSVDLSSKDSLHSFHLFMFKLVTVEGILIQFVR

In the case of `CC1(C)CON(Cc2ccccc2Cl)C1=O` [clomazone], in experiment [1] (10 μM and 100 μM clomazone), the “yields of prenylated stilbenoids compared to non-inhibitor group” value is given as “significantly lower yields of prenylated stilbenoids” and the “yields of resveratrol compared to non-inhibitor group” value is given as “significantly higher yields of resveratrol”. Moreover, in experiment [1] (100 μM clomazone), the piceatannol produced was determined as 9.02 µM and the resveratrol produced amounted to 845.7 µM. The “accumulation of arachidin-5 and arachidin-1” value in experiment [1] (100 μM clomazone, 48-hour) is given as “almost completely inhibited”. Also, the piceatannol concentration result in experiment [1] (100 μM clomazone, 72 h) is reported as “increased only slightly”. Further, in experiment [1] (setting [3]), the yield of resveratrol turned out to be 830.73 ± 25.83 µM and the “yield of resveratrol relative to non-inhibitor group” value is 6.3 fold. Further, the “effects on accumulation of resveratrol and inhibition of prenylated stilbenoids accumulation” value in experiment [1] (clomazone 1 μM to 100 μM with elicitors) is “increased with the concentration of clomazone”. In addition, the “micromolar increase of resveratrol relative to overall decrease of arachidin-5, -1, -2 and -3” value in experiment [1] (clomazone with elicitors) is on record as “about 1.54 fold”. For the same molecule, the “levels of all prenylated stilbenoids” value in experiment [1] (clomazone, 24-h interval between 48- and 72-h time points) is “no significant increases”. For the same molecule, the “production of stilbenoids without elicitors” value in experiment [1] (different concentrations of clomazone, no elicitors) was “none of these stilbenoids was detected”.
`CC(C)=CCC/C(C)=C/CC/C(C)=C/COP(=O)(O)OP(=O)(O)O` [FPP, farnesyl pyrophosphate]: the “activity as prenyl donor” value on AhR3′DT-1 and on AhR4DT-1 was “Neither AhR4DT-1 nor AhR3′DT-1 showed any detectable activity” in each case.
Consider `CC(C)=CCC/C(C)=C/COP(=O)(O)OP(=O)(O)O` [GPP, geranyl pyrophosphate], for which the “activity as prenyl donor” value on AhR3′DT-1 and at AhR4DT-1 was “Neither AhR4DT-1 nor AhR3′DT-1 showed any detectable activity” throughout.
With `O=C(O)CN(CCN(CC(=O)O)CC(=O)O)CC(=O)O` [EDTA], at AhR3′DT-1, the “AhR3′DT-1 activity relative to Mg^2+” value is recorded as “no activity was detected”. Besides, the “AhR4DT-1 activity relative to Mg^2+” value at AhR4DT-1 is reported as “no activity was detected”.
For the molecule `Oc1cc(O)cc(/C=C/c2ccccc2)c1` [pinosylvin], the “prenylation as prenyl acceptor” value at AhR3′DT-1 is “no prenylated pinosylvin was produced”; in experiment [2] it was “catalyzed pinosylvin into chiricanine A”; on AhR4DT-1, “can selectively catalyze”.
Consider `Oc1cc(O)cc(/C=C/c2ccc(O)cc2O)c1` [oxyresveratrol], for which the “prenylation as prenyl acceptor” value at AhR3′DT-1 is “prenylated products of piceatannol and prenylated oxyresveratrol were identified”; in experiment [2], “an isoprene unit was also transferred to oxyresveratrol”; on AhR4DT-1, “can selectively catalyze”.
In the case of `O=c1cc(-c2ccc(O)cc2)oc2cc(O)cc(O)c12` [apigenin], the “prenylation as prenyl acceptor” value on AhR3′DT-1 is “neither prenylated flavanone, prenylated flavone, nor prenylated isoflavone was detected”; on AhR4DT-1, “neither prenylated flavanone, prenylated flavone, nor prenylated isoflavone was detected”.
Turning to `O=C1C[C@@H](c2ccc(O)cc2)Oc2cc(O)cc(O)c21` [naringenin], the “prenylation as prenyl acceptor” value on AhR3′DT-1 was “neither prenylated flavanone, prenylated flavone, nor prenylated isoflavone was detected”; at AhR4DT-1, “neither prenylated flavanone, prenylated flavone, nor prenylated isoflavone was detected”.
Turning to `O=c1c(-c2ccc(O)cc2)coc2cc(O)cc(O)c12` [genistein], the “prenylation as prenyl acceptor” value on AhR3′DT-1 is given as “neither prenylated flavanone, prenylated flavone, nor prenylated isoflavone was detected”; on AhR4DT-1 it was “neither prenylated flavanone, prenylated flavone, nor prenylated isoflavone was detected”.
As to `[Ca+2]` [Ca^2+], the “resveratrol prenyltransferase activity relative to Mg^2+” value in experiment [2] is 0.9%.
With `CC(C)=CCC/C(C)=C/CC/C(C)=C/CC/C(C)=C/COP(=O)(O)OP(=O)(O)O` [GGPP, geranylgeranyl pyrophosphate], the “activity as prenyl donor” value at AhR3′DT-1 and on AhR4DT-1 was “Neither AhR4DT-1 nor AhR3′DT-1 showed any detectable activity” throughout.
As to `Oc1cc(O)cc(/C=C/c2ccc(O)c(O)c2)c1` [piceatannol, 3,5,3′,4′-tetrahydroxy-trans-stilbene], the “prenylation as prenyl acceptor” value on AhR3′DT-1 is “prenylated products of piceatannol and prenylated oxyresveratrol were identified”; in experiment [2], “catalyzed the synthesis of arachidin-5 as the predominant prenylated product”; on AhR4DT-1, “can selectively catalyze”. On AhR4DT-1, the “Vmax for AhR4DT-1 relative to AhR3′DT-1” value was 6.9 fold.
On to `CC(C)=CCOP(=O)(O)OP(=O)(O)O` [DMAPP, dimethylallyl pyrophosphate], for which the Km in experiment [2] (microsomal fraction of peanut hairy roots, 28° C., 60 min, read-out: apparent km) came to 91.9 ± 7.03 µM. For the same molecule, the “Vmax for AhR4DT-1 relative to AhR3′DT-1” value at AhR4DT-1 turned out to be 5.8 fold.
On to `[Mg+2]` [Mg^2+], for which, on AhR3′DT-1, the “AhR3′DT-1 activity relative to Mg^2+” value was 100%. Moreover, in experiment [2], the “resveratrol prenyltransferase activity relative to Mg^2+” value amounted to 100%. Further, the “AhR4DT-1 activity relative to Mg^2+” value at AhR4DT-1 was 100%.
`[Mn+2]` [Mn^2+]: on AhR3′DT-1, the “efficiency relative to Mg^2+” value came to 2.1 fold and the “AhR3′DT-1 activity relative to Mg^2+” value is 210.3%. Besides, the “resveratrol prenyltransferase activity relative to Mg^2+” value in experiment [2] is 71.8%. Moreover, at AhR4DT-1, the “AhR4DT-1 activity relative to Mg^2+” value amounted to 83.9%.
`[Fe+2]` [Fe^2+]: the “AhR3′DT-1 activity relative to Mg^2+” value on AhR3′DT-1 is reported as 34.8%. In addition, the “resveratrol prenyltransferase activity relative to Mg^2+” value in experiment [2] is listed as 14.6%. Also, on AhR4DT-1, the “AhR4DT-1 activity relative to Mg^2+” value came out at 6.4%.
Take `CC[C@H](C)C(=O)O[C@H]1CCC=C2C=C[C@H](C)[C@H](CC[C@@H]3C[C@@H](O)CC(=O)O3)[C@H]21` [mevastatin]: the “yields of resveratrol, piceatannol and prenylated stilbenoids” value in experiment [1] (10 μM mevastatin with elicitors) is recorded as “no significant effect”. In experiment [1] (setting [4]), the “increase in yield of arachidin-1” value stood at 41% and the “increase in yield of arachidin-5” value stood at 27%. Besides, in experiment [1] (24-h interval between 48 and 72-h treatments), the “accumulation of arachidin-5, arachidin-1, arachidin-2 and arachidin-3” value was “did not inhibit the accumulation”. In addition, the “levels of prenylated stilbenoids” value in experiment [1] (mevastatin at 1, 10, or 100 μM with 100 μM MeJA and 9 g/L CD, preliminary experiments) was “did not affect the levels of prenylated stilbenoids”.

B1: AhR3′DT-3: stilbenoid prenyltransferase, GenBank KY565247 (protein, listed as Arachis hypogaea)
chain: MPFGLSASFLKSRSLHHHGWKFLKEREIHKQPLRNTRRALWNNNGKLSKEYCIKMQHNYWKNHCTNLKGGSMMSDDKFEKKYLVNATSKNSHDEPKKSQPILEFIKDGMDTFRQFSRLYAFFSFISSGLSSSLLAVDNLSNISPKMFLIGFLQFLIPNCIMFQYIVGVNQLADIEIDKINKPYLPLASGKYSLRNAIIIVASSLIMGFGSAWVLGSRPMFWCLVISTMLMTAYSVNLPLLRWKRSTILATLSLASSMTIGQHIAPFLHMKTVLKKALNYPRSLVFTVVVVSLFYTVISLAKDIPDIEGDKAAGHKTLAIHLGPRRVFWFCISLLQMTYGIAIIMGALSPILWSKIFTVVTHFIMSIILWYRANSVDLSNNDSLQSFYMAIFVFLSVENFLVLFVR
Regarding B1, the “activity level relative to AhR3′DT-1” value in the experiment on resveratrol prenylation is 17%.

B2: AhR3′DT-4: stilbenoid prenyltransferase, GenBank KY565248 (protein, listed as Arachis hypogaea)
chain: MASTSRLLLHASLPPPTTSISKTNSGSHAVIRSIWHNNGKYPKEKTCIETPLLLQHNQKHHYTCDQIKRKHFVKATHAQSKNEPEPQADSAKPIWNSIKDVMHTIQKFSVFYALIGLLSGILSSSLLAVEKLSDLSPTFFISMLQFMAAYSSMQLYTTGVNQLADIEIDKINKPYRPLASSKISFGGGLAIVAASLFMSFGLALMIGSKPLLWGLILIFILMTAYSVNLPFLRWKKSTILTLLSGVPTILTAYNLAPYLHMKTFVLKKPFIFTRSLAFTTVVMTFFYVVISLFKDIPDIEGDKKEGLQTLSIRLGPKRVFWLCISLLEMTYGIAIIMGLTSPFLWSKIFTVMAHAINAWILWFRANSVDLKSKEDFQSFYMFIFKLLYLENVLVLFVR
With B2, in the experiment on resveratrol prenylation, the “activity level relative to AhR3′DT-1” value was 5%.

B3: AhR3′DT-2: stilbenoid prenyltransferase, GenBank KY565246 (protein, listed as Arachis hypogaea)
chain: MPFGLSASFLKSRSFHHHGTRRALWNNNGKLSKEYCIKMQHNYWKNHCTNLKGGSMMSDDKFEKKYLVNATSKNSHDEPKKSQPILEFIKDGMDTFRQFSRLYAFFSFISSGLSSSLLAVDNLSNISPKMFLIGFLQFLIPNCIMFQYIVGVNQLADIEIDKINKPYLPLASGKYSLRNAIIIVASSLLMGFGSAWVLGSRPMFWCLVISTMLMTAYSVNLPLLRWKRSTILATLSLASSMTIGQHIAPFLHMKTVLKKALNYPRSLVFTVVVVSLFYTVISLAKDIPDIEGDKAAGHKTLAIHLGPRRVFWFCISLLQMTYGIAIIMGALSPILWSKIFTVVTHFIMSIILWYRANSVDLSNNDSLQSFYMAIFVFLSVENFLVLFVR
As for B3, the “activity level relative to AhR3′DT-1” value with resveratrol prenylation is given as 18%.
